Measurements as given in patent US12077503B2, “Substituted cyclic amides and their use as herbicides” (FMC CORPORATION, priority 2015, dated 2024).
Read-outs that look alike come from different tables or passages of the source.

What was measured:
Experiment in all cases: Test A postemergence
Type in all cases: in vivo
[1] = tested on: giant foxtail (Setaria faberii); conditions: Setaria faberi, post-emergence, 240 h; for pest or weed control at 125 g/ha: 125 g ai/ha, read-out: Foxtail, Giant plant response rating (0 to 100 scale); for pest or weed control at 500 g/ha: 500 g ai/ha
How it was run: (§1)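 Each rating is a visual injury score from 0 to 100 given about 10 d after treatment, judged against untreated controls kept alongside in the greenhouse. In loam soil–sand blend, seeds got a preemergence directed soil spray, while postemergence plants were 2 to 10 cm tall at spraying.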

[2] = tested on: ragweed (common ragweed, Ambrosia elatior); conditions: Ambrosia artemisiifolia, post-emergence, 240 h; for pest or weed control at 125 g/ha: 125 g ai/ha, read-out: Ragweed plant response rating (0 to 100 scale); for pest or weed control at 500 g/ha: 500 g ai/ha
How it was run: as §1

[3] = tested on: blackgrass (Alopecurus myosuroides); conditions: Alopecurus myosuroides, post-emergence, 240 h; for pest or weed control at 125 g/ha: 125 g ai/ha, read-out: Blackgrass plant response rating (0 to 100 scale); for pest or weed control at 500 g/ha: 500 g ai/ha
How it was run: as §1

[4] = tested on: Galium (catchweed bedstraw, Galium aparine); conditions: Galium, post-emergence, 240 h; for pest or weed control at 125 g/ha: 125 g ai/ha, read-out: Galium plant response rating (0 to 100 scale); for pest or weed control at 500 g/ha: 500 g ai/ha
How it was run: as §1

Kochia (Kochia scoparia) = conditions: Bassia scoparia, post-emergence, 240 h; for pest or weed control at 125 g/ha: 125 g ai/ha, read-out: Kochia plant response rating (0 to 100 scale); for pest or weed control at 500 g/ha: 500 g ai/ha
How it was run: as §1

[5] = tested on: barnyardgrass (Echinochloa crus-galli); conditions: Echinochloa crus-galli, post-emergence, 240 h; for pest or weed control at 125 g/ha: 125 g ai/ha; for pest or weed control at 500 g/ha: 500 g ai/ha
How it was run: as §1

[6] = postemergence, visual injury vs untreated controls after approx. 10 d, 0 = no effect, 100 = complete control
[7] = postemergence, visual injury vs untreated controls after approx. 10 d, 0 = no effect, 100 = complete control, read-out: Barnyardgrass plant response rating (0 to 100 scale)
[8] = Postemergence, visual injury, 0 to 100 scale (0 no effect, 100 complete control), approx. 10 d, read-out: Plant response rating, Foxtail, Giant
[9] = Postemergence, visual injury, 0 to 100 scale (0 no effect, 100 complete control), approx. 10 d, read-out: Plant response rating, Ragweed
[10] = Postemergence, visual injury, 0 to 100 scale (0 no effect, 100 complete control), approx. 10 d, read-out: Plant response rating, Blackgrass
[11] = Postemergence, visual injury, 0 to 100 scale (0 no effect, 100 complete control), approx. 10 d, read-out: Plant response rating, Galium
[12] = Postemergence, visual injury, 0 to 100 scale (0 no effect, 100 complete control), approx. 10 d, read-out: Plant response rating, Kochia
[13] = Postemergence, visual injury, 0 to 100 scale (0 no effect, 100 complete control), approx. 10 d, read-out: Plant response rating, Barnyardgrass
[14] = Postemergence, visual rating about 10 d after treatment
[15] = Postemergence, visual rating about 10 d after treatment, read-out: Barnyardgrass plant response rating (0 to 100 scale, 0 no effect, 100 complete control)

Compound	pest or weed control at 125 g/ha [1, 6] [%]	pest or weed control at 125 g/ha [2, 6] [%]	pest or weed control at 125 g/ha [3, 6] [%]	pest or weed control at 125 g/ha [4, 6] [%]	pest or weed control at 125 g/ha (Kochia (Kochia scoparia); [6]) [%]	pest or weed control at 125 g/ha [5, 7] [%]	pest or weed control at 500 g/ha [1, 8] [%]	pest or weed control at 500 g/ha [2, 9] [%]	pest or weed control at 500 g/ha [3, 10] [%]	pest or weed control at 500 g/ha [4, 11] [%]	pest or weed control at 500 g/ha (Kochia (Kochia scoparia); [12]) [%]	pest or weed control at 500 g/ha [5, 13] [%]	pest or weed control at 125 g/ha [1, 14] [%]	pest or weed control at 125 g/ha [2, 14] [%]	pest or weed control at 125 g/ha [3, 14] [%]	pest or weed control at 125 g/ha [4, 14] [%]	pest or weed control at 125 g/ha (Kochia (Kochia scoparia); [14]) [%]	pest or weed control at 125 g/ha [5, 15] [%]	also measured
O=C1NC[C@H](c2cccc(C(F)(F)F)c2)C1C(=O)Nc1ccccc1CO (stereo partly drawn) [Compound 1244]	50	0	0	0	0	50	–	–	–	–	–	–	–	–	–	–	–	–	pest or weed control at 500 g/ha ([1]; postemergence, 0 to 100 scale, 0 is no effect, 100 is complete control, read-out: Foxtail, Giant plant response rating): 90%; pest or weed control at 500 g/ha ([2]; postemergence, 0 to 100 scale, 0 is no effect, 100 is complete control, read-out: Ragweed plant response rating): 0%; pest or weed control at 500 g/ha ([3]; postemergence, 0 to 100 scale, 0 is no effect, 100 is complete control, read-out: Blackgrass plant response rating): 50%; pest or weed control at 500 g/ha ([4]; postemergence, 0 to 100 scale, 0 is no effect, 100 is complete control, read-out: Galium plant response rating): 20%; pest or weed control at 500 g/ha (Kochia (Kochia scoparia); postemergence, 0 to 100 scale, 0 is no effect, 100 is complete control, read-out: Kochia plant response rating): 0%; pest or weed control at 500 g/ha ([5]; postemergence, 0 to 100 scale, 0 is no effect, 100 is complete control, read-out: Barnyardgrass plant response rating): 80%
CCc1ccc([C@H]2CNC(=O)[C@@H]2C(=O)Nc2c(F)cccc2F)cc1 [Compound 1248]	0	0	0	0	0	0	20	0	0	0	0	50	–	–	–	–	–	–	–
CN1C[C@H](c2ccc(F)c(C#N)c2)[C@@H](C(=O)Nc2cccc(F)c2F)C1=O [Compound 1255]	80	0	0	40	20	90	80	40	60	60	50	100	–	–	–	–	–	–	–
CN1C[C@H](c2ccc(C(F)F)cc2)[C@@H](C(=O)Nc2ccc(F)c(F)c2F)C1=O [Compound 1260]	80	50	70	70	60	90	90	70	80	70	70	90	–	–	–	–	–	–	–
Cc1nc([C@H]2CN(C)C(=O)[C@@H]2C(=O)Nc2cccc(F)c2F)cs1 [Compound 1281]	–	–	–	–	–	–	30	0	0	50	30	80	20	0	0	0	0	20	–
COc1cc([C@H]2CN(C)C(=O)[C@@H]2C(=O)Nc2ccccc2F)ccc1F [Compound 1298]	–	–	–	–	–	–	90	0	0	20	0	80	70	0	0	0	0	80	–
COc1cc([C@H]2CN(C)C(=O)[C@@H]2C(=O)Nc2cccc(F)c2C)ccc1F [Compound 1300]	–	–	–	–	–	–	90	0	50	40	0	90	80	0	30	20	0	80	–
CN1C[C@H](c2cccc(C(C)(F)F)c2)[C@@H](C(=O)Nc2ccc(F)cc2F)C1=O [Compound 1319]	–	–	–	–	–	–	90	0	80	60	60	90	90	0	70	60	20	90	–
CN1C[C@H](c2ccc3c(c2)CCO3)[C@@H](C(=O)Nc2cccc(F)c2F)C1=O [Compound 1324]	–	–	–	–	–	–	90	40	60	50	70	90	90	20	40	30	30	90	–
Cc1c(F)ccc([C@H]2CNC(=O)[C@@H]2C(=O)Nc2ccccc2F)c1F [Compound 1326]	–	–	–	–	–	–	0	0	0	20	0	90	0	0	0	0	0	70	–
C=CCOc1cccc(C2CN(C)C(=O)C2C(=O)Nc2ccccc2F)c1 (stereo not drawn) [Compound 1329]	–	–	–	–	–	–	90	0	60	60	50	90	90	0	20	30	40	90	–
